Assay results reported in patent US20240287054A1, “COMPOUNDS THAT BIND NON-CANONICAL G-QUADRUPLEX STRUCTURES AND METHODS OF MAKING AND USING THE SAME” (The U.S.A., as Represented by the Secretary, Department of …, priority 2021, published 2024).
Read-outs that look alike come from different tables or passages of the source.

Assays:
Assay type in all cases: binding, human
MYCN G4 DNA [1] = test: Surface plasmon resonance (SPR) with immobilized biotinylated MYCN G4 DNA; conditions: for positive binding in SPR (SNR>3): single concentration 100 μM compound
Experimental: Surface plasmon resonance (SPR) analysis. The SPR binding assays were performed with a BIAcore 3000 (GE Healthcare) instrument. A CM5 SPR biochip was loaded into the system and primed with running buffer (10 mM Tris, pH7.0, 100 mM KCl, 0.005% Tween 20, 5% DMSO) with a flow rate of 5 μL/min. Then both Flow Cell (Fc) 1 and 2 were activated by EDC/NHS (0.4 M/0.1 M) aqueous solution for 15 min, followed with an injection of streptavidin (SA) solution (0.2 mg/mL in 10 mM sodium acetate buffer, pH4.5) for 30 minutes. After the immobilization amount of SA reached 8,000-10,000 RU, the surface was deactivated by flowing 1 M Ethanolamine aqueous solution (pH 8.5) for 10 min and regenerated with 10 mM NaOH for 2 min to remove the unbound SA. In the meantime, biotinylated MYCN G4 DNA was prepared at 5 μM in the annealing buffer and heated up to 95° C. for 5 min and slowly cooled down. After annealing, a total of 150 μL solution was injected in the Fc 2 of SPR system for 30 min to immobilize DNA onto the chip surface. The small molecule solutions were tested once the baseline was stable.
To detect the binding signal as well as the binding affinity, a higher flowing rate (25 μL/min) was used in both Fc 1 (reference) and Fc 2 (DNA). Each of the compound solution was prepared at 20× designed the concentrations in DMSO, and then diluted into non-DMSO running buffer, resulting in a final concentration of 5% DMSO. Then, a total of 50 μL compound solution was injected in Fc 1-2 flow path for 120 s for association, followed with 200 s running of buffer for dissociation. An injection of 50 μL regeneration buffer (1 M KCl) could be performed between two samples if necessary. The final binding curve was obtained by reference subtraction. To determine the binding affinity (KD), a series of diluted compound solutions were injected and KD was calculated by BIAevaluation 4.0 software (GE Healthcare) using Langmuir 1:1 binding model.
In this example, SPR binding assays were performed to analyze binding activity of representative bivalent compounds of the present disclosure. The compounds of this example included a non-canonical binder component and a G4 stacker component. A BIAcore 3000 (GE Healthcare) instrument was used. A CM5 SPR biochip was used and primed with running buffer (10 mM Tris, pH7.0, 100 mM KCl, 0.005% Tween 20, 5% DMSO). To immobilize the compounds onto the chip surface, the flow rate was set as 5 μL/min. Then the carboxylated dextran on the chip surface was activated by EDC/NHS (0.4 M/0.1 M) aqueous solution for 15 min, followed with an injection of streptavidin (SA) solution (0.2 mg/mL in 10 mM sodium acetate buffer, pH 4.5) for 30 minutes. After the immobilization amount of SA, the surface was quenched by injecting 1 M ethanolamine (EA) aqueous solution (pH 8.5) for 10 min and regenerated with 10 mM NaOH for 2 min to remove the physical adsorption. Furthermore, biotinylated MYCN G4 DNA was prepared at 5 μM in the annealing buffer and heated up to 95° C. for 5 min followed with slowly cooling down to room temperature within 1 h. After annealing, a total of 150 μL solution was injected in the Fc 2 of SPR system for 30 min to immobilize DNA onto the chip surface. The compound solutions were then tested once the baseline was stable.
To detect the binding signal as well as the binding affinity, a higher flowing rate (25 μL/min) was used in both Fc 1 (blank) and Fc 2 (target). Each of the compound solutions was prepared at 20× designed the concentrations in DMSO, and then diluted into non-DMSO running buffer, resulting in a final concentration of 5% DMSO. Then, a total of 50 μL compound solution was injected in Fc 1-2 flow path for 120 s for association, followed with 200 s running of buffer for dissociation. An injection of 50 μL regeneration buffer (1 M KCl) could be performed between two samples if necessary. The final binding curve was obtained by referencing the blank channel (Fc 1). […]

MYCN G4 DNA [2] = test: Fluorescence intensity assay (FIA) with 5′Cy5-labeled MYCN G4 DNA; conditions: single concentration 100 μM compound, 5′Cy5-MYCN G4
Experimental: Fluorescence intensity assay. In this disclosure, fluorescence intensity assay (FIA) was used for both validation of hit binding at a single dose and binding affinity determination. For validating hit compounds from SMM screening, 100 μM solution of each compound was prepared in triplicate in a 96 well-plate (Costar, black side clear bottom), resulting in 5% DMSO concentration. 5′Cy5-labeled MYCN G4 DNA was annealed as described above, then added into the well plate resulting in a final concentration of 100 nM. The plate was incubated shaking for 30 min, followed by centrifuging at 500 rpm for 2 minutes. The fluorescence intensity was then measured on a Synergy Mx microplate reader (BioTek) at Ex 649 nm/Em 670 nm. TMPyP4/DMSO were used as positive and negative controls, respectively. In certain examples, compounds were considered binders when a change of >10% change in fluorescence intensity was observed compared to that of negative control (DMSO solution). For binding affinity measurement, small molecule solutions were prepared as serial dilutions in DMSO. Then a final test plate was prepared by adding 5 μL small molecule solutions and 10 μL annealed DNA samples into 85 μL buffer solutions, resulting in the final small molecule concentrations from 0 to 250 μM (5% final DMSO concentration). The fluorescence intensities were normalized, and the binding affinity was calculated by fitting the curve using one-site total model in GraphPad Prism 8.3.1 software. The fluorescence titration using 3′-labeled oligonucleotides was also performed the same way.

[3] = target: MYCN G4 DNA (2-AP at A11); test: 2-Aminopurine (2-AP) fluorescence titration, A11-labeled MYCN G4; conditions: 2-AP at A11 of MYCN G4
Experimental: 2-Aminopurine (2-AP) fluorescence titration. Fluorescence titrations based on 2-aminopurine labeling were performed using the protocol reported previously. Briefly, MYCN G4 oligonucleotide with a 2-AP substitution at either A11 or A18 position was annealed by heating the sample to 95° C. for 5 min and cooling down to RT slowly. The oligonucleotide with folded structure was diluted to 10 μM in Tris buffer (10 mM Tris, pH7.0, 100 mM KCl, 0.005% Tween 20) and prepared in a black 96-well plate (Costar) in triplicate as designed. Small molecules were diluted in DMSO to obtain a series of solutions with concentrations ranging from 0.1 to 5 mM, and then diluted by 20 times added into the plate (5% DMSO final concentration). The final concentration of 2-AP DNA was 1 μM in the well plate. To obtain the background fluorescence, small molecule solutions without DNA were also prepared in the same plate. After incubation for 30 min at RT, the plate was briefly centrifuged and scanned in Synergy Mx microplate reader (BioTek) with Ex 310 nm/Em 365 nm. Fluorescence signals were calculated by averaging the intensities in triplicate wells after subtracting the references. Finally, the binding signals were normalized and the KD value was determined by fitting the curve using a nonlinear sigmoidal dose-response model with a variable slope in GraphPad Prism 8.3.1 software.

MYCN hairpin-G4 DNA = test: FIA using compound fluorescence (Ex 340/Em 500 nm), titration with unlabeled MYCN G4 DNA; conditions: for Kd: 100 nM compound titrated with folded unlabeled MYCN G4
Experimental: In this study, FIA was used for validating the bindings between certain bivalent and MYCN G4 oligos. To measure the binding affinity, a solution of each compound was prepared in triplicate in a 96 well-plate (Costar, black side clear bottom), resulting in a final concentration of 100 nM (5% final DMSO in the working solution). Unlabeled MYCN G4 DNA was folded based on the above-mentioned annealing method, then added into the well plate resulting in different concentrations by a seral dilution. The plate was incubated at room temperature for 30 min, followed by centrifuging at 500 rpm for 2 minutes. The fluorescence intensity was then quantitatively recorded by a Synergy Mx microplate reader (BioTek) at Ex 340 nm/Em 500 nm. The fluorescence intensities were then normalized, and the binding affinity was calculated by fitting the curve using one-site total model in GraphPad Prism 8.3.1 software.

[4] = MYCN G4, Langmuir 1:1 model, read-out: SPR KD
[5] = MYCN hairpin G4, SPR titration, read-out: KD by SPR

Structure (SMILES)	Kd (MYCN G4 DNA [1]; [4])	positive binding in FIA (>10% quenching) (MYCN G4 DNA [2])	Kd [3]	other results
Cc1ccc(Nc2cc(C)nc(N3CCN(C(=O)CCc4ccccc4)CC3)n2)cc1 [Compound 10]		hits		
c1cc(CNCCCN2CCCCCC2)n(-c2nnc(C3CCCCCC3)s2)c1 [Compound 2]		hits		positive binding in SPR (SNR>3) (MYCN G4 DNA [1]): hits
Cc1c(C(=O)O)sc2ncnc(NCCCN3CCN(c4ccccc4)CC3)c12 [Compound 9]				positive binding in SPR (SNR>3) (MYCN G4 DNA [1]): hits
O=C1C(=O)C(c2ccc3c(c2)CCCC3)C1NC1CCN(Cc2ccccc2)CC1 (centres unmarked) [Compound 3]				positive binding in SPR (SNR>3) (MYCN G4 DNA [1]): hits
CCOc1ccc(CNC(=O)c2cnc(N3CCSCC3)nc2N)cc1 [Compound 12]		hits		
CCCNc1cc(N2CCCC(CCC(=O)N3CCN(c4ncccn4)CC3)C2)ncn1 (centres unmarked) [Compound 13]				positive binding in SPR (SNR>3) (MYCN G4 DNA [1]): hits
CC(C)COCC(O)CN1CCN(c2ccc(NC(=O)c3cccs3)cn2)CC1 (centres unmarked) [Compound 14]		hits		
COc1ccc(-c2noc(-c3ccc(NCCOCCOCCNc4c5ccc(Cl)cc5nc5ccc(OC)cc45)nn3)n2)cc1 [B38, 6-chloro-2-methoxy-N-(2-(2-(2-((6-(3-(4-methoxyphenyl)-1,2,4-oxadiazol-5-yl)pyridazin-3-yl)amino)ethoxy)ethoxy)ethyl)acridin-9-amine]				Kd (MYCN hairpin-G4 DNA): 69 ± 21 nM; Kd (MYCN G4 DNA [1]; [5]): 87 ± 39 nM
COc1ccc(-c2noc(-c3ccc(NCCOCCNc4c5ccc(Cl)cc5nc5ccc(OC)cc45)nn3)n2)cc1 [B35, 6-chloro-2-methoxy-N-(2-(2-((6-(3-(4-methoxyphenyl)-1,2,4-oxadiazol-5-yl)pyridazin-3-yl)amino)ethoxy)ethyl)acridin-9-amine]				Kd (MYCN hairpin-G4 DNA): 38 ± 5 nM; fold improvement of KD compared to B32 (MYCN hairpin-G4 DNA; FIA and SPR, MYCN HP-G4): > 10 fold; Kd (MYCN G4 DNA [1]; [5]): 14 ± 6 nM
COc1ccc2c(c1)sc1nc(-c3ccc(OC)c(OC)c3)c(NC(C)(C)C)n12 [Compound 11]		hits		
COCC(=O)c1nc2ccccc2nc1NCc1cccnc1 [Compound 5]		hits		positive binding in SPR (SNR>3) (MYCN G4 DNA [1]): hits

Second part, led by results:

Kd (MYCN G4 DNA [1]; [4])	positive binding in FIA (>10% quenching) (MYCN G4 DNA [2])	Kd [3]	Structure (SMILES)	other results
> 100000 nM			COc1ccc(-c2noc(-c3ccc(NCCN4CCCC4)nn3)n2)cc1 [MY-12]	
9200 ± 1900 nM		1200 ± 200 nM	COc1ccc(-c2noc(-c3ccc(NCCCN(C)C)nn3)n2)cc1 [MY-11]	
5900 ± 2700 nM		1200 ± 600 nM	COCCNc1ccc(-c2nc(-c3ccc(OC)cc3)no2)nn1 [MY-3]	
23500 ± 4700 nM		13200 ± 4600 nM	COc1ccc(-c2noc(-c3ccc(NCCC(N)=O)nn3)n2)cc1 [MY-7]	
2200 ± 600 nM		700 ± 200 nM	COc1ccc(-c2noc(-c3ccc(NCCCN4CCC(C)CC4)nn3)n2)cc1 [MY-10]	A11 2AP KD [3]: sub-micromolar binders
8200 ± 2400 nM		3200 ± 700 nM	COc1ccc(-c2noc(-c3ccc(NCCN4CCOCC4)nn3)n2)cc1 [MY-13, 6-(3-(4-methoxyphenyl)-1,2,4-oxadiazol-5-yl)-N-(2-morpholinoethyl)pyridazin-3-amine]	
4900 ± 2600 nM		1000 ± 200 nM	COc1ccc(-c2noc(-c3ccc(NCCN(C)C)nn3)n2)cc1 [MY-6]	
1400 ± 200 nM		1000 ± 100 nM	COc1ccc(-c2noc(-c3ccc(NCCCN4CCN(C)CC4)nn3)n2)cc1 [MY-5, 6-(3-(4-methoxyphenyl)-1,2,4-oxadiazol-5-yl)-N-(3-(4-methylpiperazin-1-yl)propyl)pyridazin-3-amine]	
3600 ± 1000 nM		900 ± 200 nM	COc1ccc(-c2noc(-c3ccc(NCCN4CCN(C)CC4)nn3)n2)cc1 [MY-14]	A11 2AP KD [3]: sub-micromolar binders
